Experimental data as given in the NIST ThermoML archive (doi:10.1021/je050514j).

Assay: xn = mol fraction of the nth substance listed
Conditions: 313.15 K, Fluid (supercritical or subcritical phases)

CCOC(C)=O [ethyl acetate] + O=C=O
mass density [kg/m3]
Conditions	1000 kPa	2000 kPa	3000 kPa	4000 kPa	5000 kPa	6000 kPa	7000 kPa	8000 kPa	9000 kPa	10000 kPa
x2 = 0	876.9	878	878.9	880	881	881.9	882.9	883.9	884.9	885.9
x2 = 0.1	880.2	881.4	882.5	883.7	884.7	885.9	887	888	889.1	890.1
x2 = 0.2	–	884.1	885.4	886.7	887.9	889.2	890.4	891.6	892.7	893.9
x2 = 0.3	–	886.2	887.6	889.1	890.5	891.9	893.3	894.6	896	897.2
x2 = 0.4	–	–	888.8	890.6	892.2	893.9	895.4	897	898.6	900
x2 = 0.5	–	–	–	889.9	891.9	893.9	895.8	897.7	899.6	901.4
x2 = 0.6	–	–	–	–	–	890.1	892.6	895	897.4	899.7
x2 = 0.7	–	–	–	–	–	879.2	882.7	886.2	889.4	892.5
x2 = 0.8	–	–	–	–	–	–	858.2	863.7	869	873.9
x2 = 0.9	–	–	–	–	–	–	–	800.6	813	823.7
x2 = 0.95	–	–	–	–	–	–	–	–	745.6	767.4
